Assay results as given in patent US20260184710A1, “CASITAS B-LINEAGE LYMPHOMA PROTOONCOGENE B (CBL-B) DEGRADING COMPOUNDS AND ASSOCIATED METHODS OF USE” (Arvinas Operations, Inc., priority 2022, published 2026).

Legend:
Cbl-b [1] = target: T1, Cbl-b (Homo sapiens, UniProt Q13191); assay: Cbl-b Degradation Method B (Nano-Glo HiBiT lytic detection); format: cell-based; settings: Cbl-b-HiBit KI Jurkat Cells, incubated at least 6-24 hours; for DC50: half maximal degradation, read-out: Cbl-b Degredation Method B IC50; for Dmax: maximum degradation observed, read-out: Cbl-b Degredation Method B Dmax (%)
T1 construct: Cbl-b-HiBit KI Jurkat Cells were purchased from Promega; host or cells: Cbl-b-HiBiT knock-in Jurkat cells
Method in brief: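 An 11-point, 3-fold compound dilution was applied for 6-24 hours to Jurkat cells carrying HiBiT-tagged endogenous Cbl-b. Lytic HiBiT luminescence quantified residual protein. Outputs are DC50 and Dmax relative to DMSO control.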

Cbl-b [2] = target: T1, Cbl-b; assay: Cbl-b Degradation Method A (FACS, anti-Cbl-b antibody staining); format: cell-based; settings: Cbl-b-HiBit KI Jurkat Cells, incubated at least 20 hours; for DC50: half maximal degradation, read-out: Cbl-b Degredation Method A IC50; for Dmax: Jurkat, maximum degradation observed, read-out: Cbl-b Degredation Method A Dmax (%)
Method in brief: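 Readout is flow cytometry of fixed, permeabilized cells immunostained for Cbl-b (primary 1:200, AF488 secondary). Cells were Cbl-b-HiBit knock-in Jurkat, exposed to compound ≥20 h at 37 °C; half-maximal degradation concentration (DC50) and maximal degradation (Dmax) calculated relative to control.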

T1 sequence (Q13191 whole entry): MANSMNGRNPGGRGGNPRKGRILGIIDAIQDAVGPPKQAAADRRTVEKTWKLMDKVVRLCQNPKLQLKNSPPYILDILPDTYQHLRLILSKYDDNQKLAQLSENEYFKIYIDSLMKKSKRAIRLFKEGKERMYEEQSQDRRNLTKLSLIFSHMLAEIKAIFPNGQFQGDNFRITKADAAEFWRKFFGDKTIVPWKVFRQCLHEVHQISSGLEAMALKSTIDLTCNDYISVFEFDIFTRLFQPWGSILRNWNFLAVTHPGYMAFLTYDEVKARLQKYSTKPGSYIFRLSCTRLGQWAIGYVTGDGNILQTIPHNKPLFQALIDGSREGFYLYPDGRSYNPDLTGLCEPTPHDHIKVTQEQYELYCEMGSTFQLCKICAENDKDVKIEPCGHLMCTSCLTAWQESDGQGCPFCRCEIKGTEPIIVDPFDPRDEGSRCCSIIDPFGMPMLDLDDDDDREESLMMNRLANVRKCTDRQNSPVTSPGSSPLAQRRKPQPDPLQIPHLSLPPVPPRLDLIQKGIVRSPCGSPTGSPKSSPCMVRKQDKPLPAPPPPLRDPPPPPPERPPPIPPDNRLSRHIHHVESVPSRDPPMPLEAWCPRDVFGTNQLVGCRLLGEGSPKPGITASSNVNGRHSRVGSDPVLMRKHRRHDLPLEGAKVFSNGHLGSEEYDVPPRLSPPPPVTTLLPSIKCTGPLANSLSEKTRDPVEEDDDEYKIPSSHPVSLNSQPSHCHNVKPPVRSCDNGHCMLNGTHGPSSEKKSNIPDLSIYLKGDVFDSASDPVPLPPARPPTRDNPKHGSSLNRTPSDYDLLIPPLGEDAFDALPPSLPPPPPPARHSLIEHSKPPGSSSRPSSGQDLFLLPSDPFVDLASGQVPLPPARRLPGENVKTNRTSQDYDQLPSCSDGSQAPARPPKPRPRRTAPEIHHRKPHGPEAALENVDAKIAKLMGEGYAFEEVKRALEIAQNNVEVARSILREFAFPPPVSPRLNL

Row | Compound | DC50 (Cbl-b [1]) [nM] | Dmax (Cbl-b [1]) [%] | DC50 (Cbl-b [2]) [nM] | Dmax (Cbl-b [2]) [%]
1 | CC1c2nc(N3CCC(O[C@H]4CC[C@@H](CN5CCN(C[C@H]6CCCN(Cc7cc8c(c(C(F)(F)F)c7)CN(c7cccc(C9(Cc%10nncn%10C)COC9)c7)C8=O)C6)CC5)CC4)CC3)ccc2C(=O)N1C1CCC(=O)NC1=O (stereo partly drawn) [Example 160, 3-[7-methyl-5-oxo-2-(4-{[(1r,4r)-4-[(4-{[(3S)-1-{[2-(3-{3-[(4-methyl-4H-1,2,4-triazol-3-yl)methyl]oxetan-3-yl}phenyl)-3-oxo-7-(trifluoromethyl)-2,3-dihydro-1H-isoindol-5-yl]methyl}piperidin-3-yl]methyl}piperazin-1-yl)methyl]cyclohexyl]oxy}piperidin-1-yl)-5H,6H,7H-pyrrolo[3,4-b]pyridin-6-yl]piperidine-2,6-dione] | < 5 | 35 to 70 | < 5 | 35 to 70
2 | CC1CN(C[C@H]2CC[C@@H](OC3CCN(c4ccc5c(c4F)CN(C4CCC(=O)NC4=O)C5=O)CC3)CC2)CCN1C[C@H]1CCCN(Cc2cc3c(c(C(F)(F)F)c2)CN(c2cccc(C4(Cc5nncn5C)COC4)c2)C3=O)C1 (stereo partly drawn) [Example 166, 3-[4-fluoro-1-oxo-5-(4-{[(1r,4r)-4-[(3-methyl-4-{[(3S)-1-{[2-(3-{3-[(4-methyl-4H-1,2,4-triazol-3-yl)methyl]oxetan-3-yl}phenyl)-3-oxo-7-(trifluoromethyl)-2,3-dihydro-1H-isoindol-5-yl]methyl}piperidin-3-yl]methyl}piperazin-1-yl)methyl]cyclohexyl]oxy}piperidin-1-yl)-2,3-dihydro-1H-isoindol-2-yl]piperidine-2,6-dione] | < 5 | > 70 | < 5 | > 70
3 | Cn1cnnc1C[C@]1(c2cccc(N3Cc4c(cc(CN5CCN(C[C@H]6CC[C@H](OC7CCN(c8ccc9c(c8F)CN(C8CCC(=O)NC8=O)C9=O)CC7)CC6)CC5)cc4C(F)(F)F)C3=O)c2)C[C@H](C#N)C1 (some centres unmarked) [Example 167, (1r,3r)-3-[(4-methyl-4H-1,2,4-triazol-3-yl)methyl]-3-(3-{1-oxo-6-[(4-{[(1r,4r)-4-({1-[2-(2,6-dioxopiperidin-3-yl)-4-fluoro-1-oxo-2,3-dihydro-1H-isoindol-5-yl]piperidin-4-yl}oxy)cyclohexyl]methyl}piperazin-1-yl)methyl]-4-(trifluoromethyl)-2,3-dihydro-1H-isoindol-2-yl}phenyl)cyclobutane-1-carbonitrile] | < 5 | 35 to 70 | < 5 | > 70
4 | COc1c(N2CCC(O[C@H]3CC[C@H](CN4CCC5(CC4)CN(c4cc6c(c(C(F)(F)F)c4)CN(c4cccc(C7(Cc8nncn8C)COC7)c4)C6=O)C5)CC3)CC2)ccc2c1CN(C1CCC(=O)NC1=O)C2=O (some centres unmarked) [Example 169, 3-[4-methoxy-1-oxo-5-(4-{[(1r,4r)-4-({2-[2-(3-{3-[(4-methyl-4H-1,2,4-triazol-3-yl)methyl]oxetan-3-yl}phenyl)-3-oxo-7-(trifluoromethyl)-2,3-dihydro-1H-isoindol-5-yl]-2,7-diazaspiro[3.5]nonan-7-yl}methyl)cyclohexyl]oxy}piperidin-1-yl)-2,3-dihydro-1H-isoindol-2-yl]piperidine-2,6-dione] | < 5 | > 70 | 5 to 50 | > 70
5 | Cc1cc(N2CCC(CN3CCC4(CC3)CN(c3cc5c(c(C(F)(F)F)c3)CN(c3cccc([C@]6(Cc7nncn7C)C[C@@H](C#N)C6)c3)C5=O)C4)CC2)c(F)c2c1C(=O)N(C1CCC(=O)NC1=O)C2 (some centres unmarked) [Example 171, (1r,3r)-3-(3-{6-[7-({1-[2-(2,6-dioxopiperidin-3-yl)-4-fluoro-7-methyl-1-oxo-2,3-dihydro-1H-isoindol-5-yl]piperidin-4-yl}methyl)-2,7-diazaspiro[3.5]nonan-2-yl]-1-oxo-4-(trifluoromethyl)-2,3-dihydro-1H-isoindol-2-yl}phenyl)-3-[(4-methyl-4H-1,2,4-triazol-3-yl)methyl]cyclobutane-1-carbonitrile] | < 5 | 35 to 70 | 5 to 50 | > 70
6 | Cn1cnnc1C[C@]1(c2cccc(N3Cc4c(cc(N5CC6(CCN(CC7(F)CCN(c8ccc9c(c8)C(=O)N(C8CCC(=O)NC8=O)C9=O)CC7)CC6)C5)cc4C(F)(F)F)C3=O)c2)C[C@H](C#N)C1 (some centres unmarked) [Example 172, (1r,3r)-3-(3-{6-[7-({1-[2-(2,6-dioxopiperidin-3-yl)-1,3-dioxo-2,3-dihydro-1H-isoindol-5-yl]-4-fluoropiperidin-4-yl}methyl)-2,7-diazaspiro[3.5]nonan-2-yl]-1-oxo-4-(trifluoromethyl)-2,3-dihydro-1H-isoindol-2-yl}phenyl)-3-[(4-methyl-4H-1,2,4-triazol-3-yl)methyl]cyclobutane-1-carbonitrile] | 5 to 50 | 35 to 70 | 5 to 50 | 35 to 70
7 | Cn1cnnc1C[C@]1(c2cccc(N3Cc4c(cc(N5CC6(CCN(CC7CCN(c8ccc9c(c8Cl)CN(C8CCC(=O)NC8=O)C9=O)CC7)CC6)C5)cc4C(F)(F)F)C3=O)c2)C[C@H](C#N)C1 (some centres unmarked) [Example 173, (1r,3r)-3-(3-{6-[7-({1-[4-chloro-2-(2,6-dioxopiperidin-3-yl)-1-oxo-2,3-dihydro-1H-isoindol-5-yl]piperidin-4-yl}methyl)-2,7-diazaspiro[3.5]nonan-2-yl]-1-oxo-4-(trifluoromethyl)-2,3-dihydro-1H-isoindol-2-yl}phenyl)-3-[(4-methyl-4H-1,2,4-triazol-3-yl)methyl]cyclobutane-1-carbonitrile] | < 5 | 35 to 70 | 5 to 50 | > 70
8 | COc1c(N2CCC(CN3CCC4(CC3)CN(c3cc5c(c(C(F)(F)F)c3)CN(c3cccc([C@]6(Cc7nncn7C)C[C@@H](C#N)C6)c3)C5=O)C4)CC2)ccc2c1CN(C1CCC(=O)NC1=O)C2=O (some centres unmarked) [Example 174, (1r,3r)-3-(3-{6-[7-({1-[2-(2,6-dioxopiperidin-3-yl)-4-methoxy-1-oxo-2,3-dihydro-1H-isoindol-5-yl]piperidin-4-yl}methyl)-2,7-diazaspiro[3.5]nonan-2-yl]-1-oxo-4-(trifluoromethyl)-2,3-dihydro-1H-isoindol-2-yl}phenyl)-3-[(4-methyl-4H-1,2,4-triazol-3-yl)methyl]cyclobutane-1-carbonitrile] | < 5 | > 70 | 5 to 50 | > 70

The next lines start with the values.

Row | DC50 (Cbl-b [1]) [nM] | Dmax (Cbl-b [1]) [%] | DC50 (Cbl-b [2]) [nM] | Dmax (Cbl-b [2]) [%] | Compound
9 | > 500 | – | 5 to 50 | < 35 | Cn1cnnc1C1(c2cccc(N3Cc4c(cc(CN5CCC[C@H](CN6CCN(C[C@H]7CC[C@@H](OC8CCN(c9ccc%10c(c9F)CN(C9CCC(=O)NC9=O)C%10=O)CC8)CC7)CC6)C5)cc4C(F)(F)F)C3=O)c2)COC1 (stereo partly drawn) [Example 161, 3-[4-fluoro-1-oxo-5-(4-{[(1r,4r)-4-[(4-{[(3S)-1-[(2-{3-[3-(4-methyl-4H-1,2,4-triazol-3-yl)oxetan-3-yl]phenyl}-3-oxo-7-(trifluoromethyl)-2,3-dihydro-1H-isoindol-5-yl)methyl]piperidin-3-yl]methyl}piperazin-1-yl)methyl]cyclohexyl]oxy}piperidin-1-yl)-2,3-dihydro-1H-isoindol-2-yl]piperidine-2,6-dione]
10 | < 5 | > 70 | < 5 | > 70 | Cn1cnnc1CC1(c2cccc(N3Cc4c(cc(CN5CCC[C@H](CN6CCN(C[C@H]7CC[C@@H](OC8CCN(c9ccc%10c(c9F)CN(C9CCC(=O)NC9=O)C%10=O)CC8)CC7)CC6)C5)cc4C(F)(F)F)C3=O)c2)CC1 (stereo partly drawn) [Example 162, 3-[4-fluoro-1-oxo-5-(4-{[(1r,4r)-4-[(4-{[(3S)-1-{[2-(3-{1-[(4-methyl-4H-1,2,4-triazol-3-yl)methyl]cyclopropyl}phenyl)-3-oxo-7-(trifluoromethyl)-2,3-dihydro-1H-isoindol-5-yl]methyl}piperidin-3-yl]methyl}piperazin-1-yl)methyl]cyclohexyl]oxy}piperidin-1-yl)-2,3-dihydro-1H-isoindol-2-yl]piperidine-2,6-dione]
11 | < 5 | > 70 | < 5 | > 70 | COc1c(N2CCC(O[C@H]3CC[C@@H](CN4CCN(C[C@H]5CCCN(Cc6cc7c(c(C(F)(F)F)c6)CN(c6cccc(C8(Cc9nncn9C)COC8)c6)C7=O)C5)CC4)CC3)CC2)ccc2c1CN(C1CCC(=O)NC1=O)C2=O (stereo partly drawn) [Example 163, 3-[4-methoxy-1-oxo-5-(4-{[(1r,4r)-4-[(4-{[(3S)-1-{[2-(3-{3-[(4-methyl-4H-1,2,4-triazol-3-yl)methyl]oxetan-3-yl}phenyl)-3-oxo-7-(trifluoromethyl)-2,3-dihydro-1H-isoindol-5-yl]methyl}piperidin-3-yl]methyl}piperazin-1-yl)methyl]cyclohexyl]oxy}piperidin-1-yl)-2,3-dihydro-1H-isoindol-2-yl]piperidine-2,6-dione]
12 | < 5 | > 70 | < 5 | > 70 | Cn1cnnc1CC1(c2cccc(N3Cc4c(cc(CN5CCC[C@H](CN6CCN(C[C@H]7CC[C@@H](OC8CCN(c9ccc%10c(c9Cl)CN(C9CCC(=O)NC9=O)C%10=O)CC8)CC7)CC6)C5)cc4C(F)(F)F)C3=O)c2)COC1 (stereo partly drawn) [Example 165, 3-[4-chloro-1-oxo-5-(4-{[(1r,4r)-4-[(4-{[(3S)-1-{[2-(3-{3-[(4-methyl-4H-1,2,4-triazol-3-yl)methyl]oxetan-3-yl}phenyl)-3-oxo-7-(trifluoromethyl)-2,3-dihydro-1H-isoindol-5-yl]methyl}piperidin-3-yl]methyl}piperazin-1-yl)methyl]cyclohexyl]oxy}piperidin-1-yl)-2,3-dihydro-1H-isoindol-2-yl]piperidine-2,6-dione]
